Where two headings read alike, the source gives them in different places.
Key:
hSirt3^102-399 [1] = target: T1, hSirt3^102-399 (Homo sapiens, UniProt Q9NTG7); assay: biochemical; conditions: read-out: % Control Steady-state
T1 sequence (Q9NTG7 102-399): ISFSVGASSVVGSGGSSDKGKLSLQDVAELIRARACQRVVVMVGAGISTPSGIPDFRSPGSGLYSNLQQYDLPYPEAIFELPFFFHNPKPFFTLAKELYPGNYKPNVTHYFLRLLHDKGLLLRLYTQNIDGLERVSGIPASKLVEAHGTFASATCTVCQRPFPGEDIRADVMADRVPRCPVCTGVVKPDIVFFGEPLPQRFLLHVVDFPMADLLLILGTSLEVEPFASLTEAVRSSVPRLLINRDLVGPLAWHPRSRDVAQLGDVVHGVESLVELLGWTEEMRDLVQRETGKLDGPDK

hSirt3^102-399 [2] = target: T1, hSirt3^102-399; assay: biochemical; conditions: read-out: % Control Non-Steady state

C=CCc1ccc(O)c(-c2ccc(O)c(CC=C)c2)c1 [Honokiol]
remaining activity at 10 µM (hSirt3^102-399 [1]): 85.9% | remaining activity at 10 µM (hSirt3^102-399 [2]): 110%

Source: doi:10.1101/2023.11.09.566481v1 (biorxiv, 2023)
